Test results as given in US7488738B2, “Aminophenoxyacetic acid derivatives and pharmaceutical composition containing thereof” (Asubio Pharma Co., Ltd., priority 1998, dated 2009).

Columns and labels:
cells of cerebral cortex = experiment: Cytoprotective effect against glutamate induced cell death (MTT); format: cell-based, rats of Wister strain; settings: compound 1 μM added 24 h before 1 mM glutamate, fetal rat cerebral cortex cells, control group = 100%; for viability at 1 µM: read-out: Survival Rate (%) (Compound: 1 μM)
Description: Biological Test 1: Cytoprotective Effect Against Glutamate Induced Cell Death
In accordance with the method of M. P. Mattoson [M. P. Mattoson, Brain Res. Rev., 13, 179 (1988)], brain of 18-days fetus rats of Wister strain were taken out. Then, cells of cerebral cortex (4×10^5 cells/ml) were seeded on poly-L-lysine coated 96 wells flat bottom plate (Sumitomo Bakelite Co., Ltd.) in concentration of 4×10^4 cells/each well. After 48 hours of incubation, 1 μM of test compounds were added, then after further 24 hours, 1 mM of glutamate were further added for inducing the cell injury. 12 hours after adding glutamate, MTT [3-(4,5-dimethylthiazol)-2,5-diphenyltetrazolium bromide] was added and incubated for 6 hours.
After incubation, 200 μl of dimethy sulfoxide was added to each wells, and the amounts of reduced MTT were calorimetrically analyzed by Micro ELISA Reader using 570 nm of main-wavelength and 650 nm of sub-wavelength.
The effect of the test compounds was determined as the survival rate of living cells (%) according to the following equation: Survival rate of living cells (%)=[(test compound group−glutamate treated group)÷(control group−glutamate treated group)]×100
That is, the survival rate of living cells after incubation of the control group was converted to 100%, and the survival data of living cells of the tested compounds was shown in Table II.

[1] = system: rats of slc:Wister strain; experiment: Cerebral edema suppressing effect (brain injury by metal screw); format: in vivo; settings: rat, water content of injured hemisphere 6 days after operation
Description: Biological Test 3: Cerebral Edema Suppressing Effect 8-week-old rats of slc:Wister strain were used. Rats were anesthetized by intraperitoneal administration of 50 mg/kg of Nembutal (Trade Name), and then, fixed on brain fixactor. The sterile metal screw (3.75 mm in length/1.0 mm in diameter/0.75 mm in length of screw thread) was plugged in the 1.5 mm right and 0.8 mm rear side of the bregma to press frontparietal cortex organ to cause brain injury. 6 days after the operation, the whole brain was taken out and right cerebral hemisphere (injured side) was isolated. After measurement of the wet weight of the cerebral hemisphere, it was dried at 110° C. for 24 hours on aluminum foil. The dry weight of the cerebral hemisphere was measured, and the water content was calculated by using the following formula: Water content (%)=[(wet weight of hemisphere−dry weight of hemisphere)/wet weight of hemisphere]×100 The test compounds were intravenously administered just after the operation via tail vein of the rats.

calbindin D28Kd = experiment: Calbindin D28Kd inducing effect (western blot); format: cell-based, rats of Wister strain; settings: fetal rat cerebral cortex cells, none-treated control = 100
Description: Biological Test 2: Calbindin D28Kd Inducing Effect
In accordance with the method of M. P. Mattoson [M. P. Mattoson, Brain Res. Rev., 13, 179 (1988)], brain of 18-days fetus rats of Wister strain were taken out. Then, cells of cerebral cortex (5,500 cells/m^2) were seeded on poly-L-lysine coated 6 wells plate (Falcon) (3.5 mm, Sumilon) and incubated for 7 days.
Test compounds were added on culture day 5, and after 7 days of incubation, the protein was extracted with homogenized buffer-solution [containing 20 mM of Tris-HCl (pH=7.4), 1 mM of EDTA, and 0.1 mM of phenylmethylsulfonyl fluoride].
The effect of the test compounds was determined by the western blot technique using polyclonal anti calbindine D28K (Swant Co., Ltd.) as antibody.
In the table, the amount of induced calbindine D28Kd of the control group (none-treated group) was indicated as 100 percents.

[2] = 3 mg/kg intravenously just after operation
[3] = 1 mg/kg intravenously just after operation

Row | SMILES | viability at 1 µM (cells of cerebral cortex) [%] | Cerebral edema suppressing rate (%) [1, 2] [%] | Survival Rate (%) (Compound: 1 μM) (cells of cerebral cortex) | Cerebral edema suppressing rate (%) [1, 3] [%] | Amount of induced Calbindine D28Kd (% vs. control) (Compound: 1 μM) (calbindin D28Kd)
1 | Cc1c(C)c(NCC(=O)N(C)C2CCN(CC(O)c3ccccc3)CC2)c(C)c(C)c1N (centres unmarked) [Compound 112, 2-(4-Amino-2,3,5,6-tetramethylanilino)-N-[1-(2-hydroxy-2-phenylethyl)-4-piperidinyl]-N-methylacetamide] | 76 | 20.7 | – | – | –
2 | Cc1c(C)c(NCC(=O)N(C)C2CCN(CC(C(=O)O)c3ccccc3)CC2)c(C)c(C)c1N (centres unmarked) [Compound 109, 3{4-[[2-(4-Amino-2,3,5,6-tetramethylanilino)-acetyl](methyl)amino]-1-piperidino}-2-phenylpropionic acid] | – | 24.7 | 76 | – | –
3 | Cc1cc(OCC(=O)NC2CCN(CC(=O)N(C)c3ccccc3)CC2)c(C)c(C)c1N [Compound 108] | – | 20.3 | – | – | –
4 | Cc1cc(C)c(NCC(=O)N(C)C2CCN(C(=O)c3cccc(C(F)(F)F)c3)CC2)c(C)c1N [Compound 134, 2-(3-Amino-2,4,6-trimethylanilino)-N-methyl-N-[1-(3-trifluoromethylbenzoyl)-4-piperidinyl]acetamide] | 79 | 35.0 | – | 27.9 | –
5 | Cc1c(C)c(NCC(=O)N(C)C2CCN(CCc3ccccc3)CC2)c(C)c(C)c1N [Compound 40, 2-(4-Amino-2,3,5,6-tetramethylanilino)-N-methyl-N-[1-(2-phenethyl)-4-piperidinyl]acetamide] | – | 20.5 | 108 | 31.1 | 150
6 | CCCCN1CCC(N(C)C(=O)CNc2c(C)cc(C)c(N)c2C)CC1 [Compound 132, 2-(3-Amino-2,4,6-trimethylanilino)-N-(1-butyl-4-piperidinyl)-N-methylacetamide] | 60 | – | – | 30.4 | –
7 | Cc1c(C)c(NCC(=O)N(C)C2CCN(CC(=O)c3ccccc3)CC2)c(C)c(C)c1N [Compound 111, 2-(4-Amino-2,3,5,6-tetramethylanilino)-N-methyl-[1-(2-phenyl-2-oxyethyl)-4-piperidinyl]acetamide] | – | 25.0 | 84 | – | 167
8 | Cc1cc(OCC(=O)NC2CCN(CC(=O)NC3(c4ccccc4)CC3)CC2)c(C)c(C)c1N [Compound 104, 2-(4-Amino-2,3,5-trimethylphenoxy)-N-[1-(2-(1-phenylcyclopropyl)amino-2-oxyethyl)-4-piperidinyl]acetamide] | – | 18.9 | 117 | – | –
9 | Cc1cc(OCC(=O)N(C)C2CCN(CC(=O)N(C)c3ccccc3)CC2)c(C)c(C)c1N [Compound 105, 2-(4-Amino-2,3,5-trimethylphenoxy)-N-methyl-N-[1-(2-(N-methylanilino)-2-oxyethyl)-4-piperidinyl]acetamide] | – | 23.2 | 86 | – | –
10 | Cc1c(C)c(NCC(=O)N(C)C2CCN(CCN3CCOCC3)CC2)c(C)c(C)c1N [Compound 119, 2-(4-Amino-2,3,5,6-tetramethylanilino)-N-methyl-N-{1-[2-(4-morpholinyl)ethyl]-4-piperidinyl}acetamide] | 115 | – | – | 21.6 | –
11 | Cc1cc(C)c(NCC(=O)N(C)C2CCN(C(=O)c3ccccc3)CC2)c(C)c1N [Compound 128, 2-(3-Amino-2,4,6-trimethylanilino)-N-(1-benzoyl-4-piperidinyl)-N-methylacetamide] | 81 | 20.3 | – | – | 171
12 | Cc1c(C)c(NCC(=O)N(C)C2CCN(CC3CC3)CC2)c(C)c(C)c1N [Compound 113] | – | 20.0 | 74 | – | –
13 | Cc1cc(OC(C)C(=O)N(C)C2CCN(CC(=O)Nc3c(C)cccc3C)CC2)c(C)c(C)c1N (centres unmarked) [Compound 61, 2-(4-Amino-2,3,5-trimethylphenoxy)-N-[1-(2-(2,6-dimethylanilino)-2-oxyethyl)-4-piperidinyl]-N-methylpropamide] | – | – | 58 | – | –
14 | Cc1cc(OCC(=O)N(C)C2CCN(Cc3ccc4ccccc4n3)CC2)c(C)c(C)c1N [Compound 44, 2-(4-Amino-2,3,5-trimethylphenoxy)-N-methyl-N-[1-(2-quinolylmethyl)-4-piperidinyl]acetamide] | 93 | – | – | – | –
15 | Cc1cc(OC(C)(C)C(=O)N(C)C2CCN(CC(=O)Nc3ccccc3)CC2)c(C)c(C)c1N [Compound 42, 2-(4-Amino-2,3,5-trimethylphenoxy)-2-methyl-N-[1-(2-anilino-2-oxyethyl)-4-piperidinyl]-N-methylpropamide] | – | 31.0 | 131 | 24.5 | –
16 | Cc1cc(C)c(NCC(=O)N(C)C2CCN(CC(=O)c3ccccc3)CC2)c(C)c1N [Compound 127, 2-(3-Amino-2,4,6-trimethylanilino)-N-methyl-N-[1-(2-phenyl-2-oxyethyl)-4-piperidinyl]acetamide] | – | – | 72 | – | –
17 | Cc1cc(OC(C)(C)C(=O)N(C)C2CCN(CC(=O)Nc3ccccc3C(C)(C)C)CC2)c(C)c(C)c1N [Compound 49, 2-(4-Amino-2,3,5-trimethylphenoxy)-2-methyl-N-[1-(2-tert-butylanilino-2-oxyethyl)-4-piperidinyl]-N-methylpropamide] | – | – | 193 | – | –
18 | Cc1cc(OCC(=O)N(C)C2CCN(CC(=O)Nc3ccccc3)CC2)c(C)c(C)c1N [Compound 29, 2-(4-Amino-2,3,5-trimethylphenoxy)-N-[1-(2-anilino-2-oxyethyl)-4-piperidinyl]-N-methylacetamide] | – | 30.9 | – | – | 122
19 | Cc1cc(OC(C)(C)C(=O)NC2CCN(CC(=O)Nc3c(C)cccc3C)CC2)c(C)c(C)c1N [Compound 98, 2-(4-Amino-2,3-5-trimethylphenoxy)-2-methyl-N-[1-(2-(2,6-dimethylanilino)-2-oxyethyl)-4-piperidinyl]propamide] | – | – | 120 | – | –
20 | Cc1cc(C)c(NCC(=O)N(C)C2CCN(CC3CC3)CC2)c(C)c1N [Compound 129, 2-(3-Amino-2,4,6-trimethylanilino)-N-[1-(cyclopropylmethyl)-4-piperidinyl]-N-methylacetamide] | 64 | – | – | – | –
21 | Cc1cc(OC(C)C(=O)N(C)C2CCN(C/C=C/c3ccccc3)CC2)c(C)c(C)c1N (centres unmarked) [Compound 62, 2-(4-Amino-2,3,5-trimethylphenoxy)-N-methyl-N-[1-(3-phenyl-2-(E)-propenyl)-4-piperidinyl]propamide] | – | – | 63 | – | –
22 | Cc1c(C)c(OCC(=O)NC2CCN(CC(=O)Nc3ccccc3)CC2)c(Cl)c(C)c1N [Compound 91, 2-(4-Amino-2-chloro-3,5,6-trimethylphenoxy)-N-[1-(2-anilino-2-oxyethyl)-4-piperidinyl]acetamide] | – | – | 203 | – | –
